According to PubChem BioAssay AID248 (DTP/NCI, 2004):
Inconclusive results and toxic doses are left out. Cut-off read from the data, not from the text of the source: active = T/C of 150% or more; inactive = T/C below 125%.

System: L1210 leukemia ip in BDF1 mice, survival T/C
Assay: NCI In Vivo Anticancer Drug Screen. Data for tumor model L1210 Leukemia (intraperitoneal) in B6D2F1 (BDF1) mice
Conditions: endpoint: mean survival time, higher = longer survival
Outline: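 Tumor was transplanted into mice, which were then dosed with test compound or vehicle alone. Survival was recorded for each group, and the treated figure was expressed relative to the control figure.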

[1] = dose: 100.0 mg/kg/injection, schedule: Q04DX003 (ip), vehicle: Klucel (hydroxypropylcellulose) (HPC)
[2] = dose: 200.0 mg/kg/injection, schedule: Q04DX003 (ip), vehicle: Klucel (hydroxypropylcellulose) (HPC)
[3] = dose: 400.0 mg/kg/injection, schedule: Q04DX003 (ip), vehicle: Klucel (hydroxypropylcellulose) (HPC)
[4] = dose: 50.0 mg/kg/injection, schedule: Q01DX009 (ip), vehicle: Klucel (hydroxypropylcellulose) (HPC)
[5] = dose: 100.0 mg/kg/injection, schedule: Q01DX009 (ip), vehicle: Klucel (hydroxypropylcellulose) (HPC)
[6] = dose: 200.0 mg/kg/injection, schedule: Q01DX009 (ip), vehicle: Klucel (hydroxypropylcellulose) (HPC)
[7] = dose: 100.0 mg/kg/injection, schedule: Q01DX009 (ip), vehicle: saline
[8] = dose: 200.0 mg/kg/injection, schedule: Q01DX009 (ip), vehicle: saline
[9] = dose: 100.0 mg/kg/injection, schedule: Q04DX002 (ip), vehicle: Klucel (hydroxypropylcellulose) (HPC)
[10] = dose: 200.0 mg/kg/injection, schedule: Q04DX002 (ip), vehicle: Klucel (hydroxypropylcellulose) (HPC)
[11] = dose: 12.5 mg/kg/injection, schedule: Q04DX003 (ip), vehicle: Klucel (hydroxypropylcellulose) (HPC)

Measured: T/C

CC1(C)OCC(N)(CO)CO1
inactive: dose: 100.0 mg/kg/injection, schedule: Q01DX005 (ip), vehicle: water 105 % of control | dose: 100.0 mg/kg/injection, schedule: Q04DX003 (ip), vehicle: water 109 % of control | dose: 200.0 mg/kg/injection, schedule: Q01DX005 (ip), vehicle: water 107 % of control | dose: 200.0 mg/kg/injection, schedule: Q04DX003 (ip), vehicle: water 108 % of control | dose: 400.0 mg/kg/injection, schedule: Q01DX005 (ip), vehicle: water 97 % of control | dose: 400.0 mg/kg/injection, schedule: Q04DX003 (ip), vehicle: water 98 % of control

CN1c2ccc(Br)c[c]2[Sn]([c]2ccccc2)([c]2ccccc2)[c]2cc(Br)ccc21
inactive: dose: 100.0 mg/kg/injection, schedule: Q01DX001 (ip), vehicle: other 91 % of control | dose: 200.0 mg/kg/injection, schedule: Q01DX001 (ip), vehicle: other 96 % of control | dose: 400.0 mg/kg/injection, schedule: Q01DX001 (ip), vehicle: other 96 % of control

O=C(NCCCl)Nc1ccccc1-c1ccccc1
inactive: [1] 101 % of control | [2] 95 % of control | [3] 115 % of control

O=[N+]([O-])/C(=C/C=C/c1ccccc1)c1ccccc1
inactive: [4] 96 % of control | [5] 89 % of control | [6] 86 % of control

C[Si](C)(C)OC/C=C\CO[Si](C)(C)C
inactive: [7] 96 % of control | dose: 100.0 mg/kg/injection, schedule: Q04DX003 (ip), vehicle: alcohol 103 % of control | [8] 94 % of control | dose: 200.0 mg/kg/injection, schedule: Q04DX003 (ip), vehicle: alcohol 101 % of control | dose: 400.0 mg/kg/injection, schedule: Q04DX003 (ip), vehicle: alcohol 96 % of control

Cc1cc(=O)oc2ccc(OS(C)(=O)=O)cc12
inactive: [4] 90 % of control | [5] 101 % of control | [6] 90 % of control

O=c1[nH]c(=O)c2nccnc2[nH]1
inactive: dose: 25.0 mg/kg/injection, schedule: Q01DX009 (ip), vehicle: water 109 % of control | dose: 50.0 mg/kg/injection, schedule: Q01DX009 (ip), vehicle: water 111 % of control | dose: 100.0 mg/kg/injection, schedule: Q01DX009 (ip), vehicle: water 104 % of control | dose: 200.0 mg/kg/injection, schedule: Q01DX009 (ip), vehicle: water 101 % of control

CC(C)(O)c1cccc2c(C(C)(C)O)cccc12
inactive: dose: 50.0 mg/kg/injection, schedule: Q01DX001 (ip), vehicle: carboxymethylcellulose (CMC) 102 % of control | dose: 100.0 mg/kg/injection, schedule: Q01DX001 (ip), vehicle: carboxymethylcellulose (CMC) 102 % of control | dose: 200.0 mg/kg/injection, schedule: Q01DX001 (ip), vehicle: carboxymethylcellulose (CMC) 94 % of control | dose: 400.0 mg/kg/injection, schedule: Q01DX001 (ip), vehicle: carboxymethylcellulose (CMC) 105 % of control

O=C(O)C(=O)Nc1ncccc1C(=O)O
inactive: [9] 114 % of control | [10] 100 % of control | dose: 400.0 mg/kg/injection, schedule: Q04DX002 (ip), vehicle: Klucel (hydroxypropylcellulose) (HPC) 103 % of control

OCC1COCOC1
inactive: dose: 50.0 mg/kg/injection, schedule: Q01DX009 (ip), vehicle: saline 104 % of control | [7] 106 % of control | dose: 100.0 mg/kg/injection, schedule: Q04DX003 (ip), vehicle: acetone 100 % of control | [8] 106 % of control | dose: 200.0 mg/kg/injection, schedule: Q04DX003 (ip), vehicle: acetone 105 % of control | dose: 400.0 mg/kg/injection, schedule: Q04DX003 (ip), vehicle: acetone 105 % of control

N#CS/C=C\C(N)=O
inactive: dose: 3.0 mg/kg/injection, schedule: Q01DX009 (ip), vehicle: Klucel (hydroxypropylcellulose) (HPC) 94 % of control | dose: 6.0 mg/kg/injection, schedule: Q01DX009 (ip), vehicle: Klucel (hydroxypropylcellulose) (HPC) 108 % of control | dose: 12.0 mg/kg/injection, schedule: Q01DX009 (ip), vehicle: Klucel (hydroxypropylcellulose) (HPC) 106 % of control | dose: 12.5 mg/kg/injection, schedule: Q01DX009 (ip), vehicle: Klucel (hydroxypropylcellulose) (HPC) 104 % of control | [11] 90 % of control

Cn1c(=O)c2ccccc2n(C)c1=O
inactive: [1] 96 % of control | [2] 102 % of control | [3] 100 % of control

Cc1ccc(NP(=O)(Oc2c(F)c(F)c(F)c(F)c2F)N(CCCl)CCCl)cc1 (centres undefined)
inactive: dose: 62.5 mg/kg/injection, schedule: Q01DX001 (ip), vehicle: other 100 % of control | dose: 125.0 mg/kg/injection, schedule: Q01DX001 (ip), vehicle: other 112 % of control | dose: 250.0 mg/kg/injection, schedule: Q01DX001 (ip), vehicle: other 106 % of control | dose: 500.0 mg/kg/injection, schedule: Q01DX001 (ip), vehicle: other 108 % of control

O=C1CC2CCCC(C1)N2CC1COc2ccccc2O1 (centres undefined)
inactive: dose: 50.0 mg/kg/injection, schedule: Q04DX002 (ip), vehicle: Klucel (hydroxypropylcellulose) (HPC) 90 % of control | [9] 90 % of control | [10] 93 % of control

Cc1cc(C)c(Sc2ccc([N+](=O)[O-])c3ccccc23)c(C)c1
inactive: dose: 100.0 mg/kg/injection, schedule: Q01DX001 (ip), vehicle: Klucel (hydroxypropylcellulose) (HPC) 102 % of control | [1] 94 % of control | dose: 200.0 mg/kg/injection, schedule: Q01DX001 (ip), vehicle: Klucel (hydroxypropylcellulose) (HPC) 98 % of control | [2] 100 % of control | dose: 400.0 mg/kg/injection, schedule: Q01DX001 (ip), vehicle: Klucel (hydroxypropylcellulose) (HPC) 95 % of control | [3] 90 % of control

O=C(/C=C\c1ccc(C(=O)Nc2ccc(C3=NCCN3)cc2)cc1)Nc1ccc(C2=NCCN2)cc1
inactive: dose: 6.0 mg/kg/injection, schedule: Q01DX Z (ip), vehicle: water 110 % of control | dose: 11.0 mg/kg/injection, schedule: Q01DX Z (ip), vehicle: water 102 % of control | dose: 15.0 mg/kg/injection, schedule: Q01DX Z (ip), vehicle: saline 114 % of control | dose: 22.0 mg/kg/injection, schedule: Q01DX Z (ip), vehicle: water 104 % of control | dose: 30.0 mg/kg/injection, schedule: Q01DX Z (ip), vehicle: saline 120 % of control | dose: 45.0 mg/kg/injection, schedule: Q01DX Z (ip), vehicle: water 107 % of control | dose: 60.0 mg/kg/injection, schedule: Q01DX Z (ip), vehicle: saline 122 % of control | dose: 120.0 mg/kg/injection, schedule: Q01DX Z (ip), vehicle: saline 113 % of control | dose: 240.0 mg/kg/injection, schedule: Q01DX Z (ip), vehicle: saline 117 % of control | dose: 480.0 mg/kg/injection, schedule: Q01DX Z (ip), vehicle: saline 103 % of control

O=C(Nc1ccc(Cl)cc1)N1CC1
inactive: [11] 92 % of control | dose: 25.0 mg/kg/injection, schedule: Q04DX003 (ip), vehicle: Klucel (hydroxypropylcellulose) (HPC) 94 % of control | dose: 50.0 mg/kg/injection, schedule: Q04DX003 (ip), vehicle: Klucel (hydroxypropylcellulose) (HPC) 98 % of control
